In US20090068290A1, “BIFEPRUNOX DOSES FOR TREATING SCHIZOPHRENIA” (priority 2006, published 2009):

What was measured:
[1] = test system: adult subjects with schizophrenia; test: CGI Severity of Illness score, Clinical Study Three; format: in vivo, human; conditions: LOCF; for Change from Baseline in CGI Severity of Illness Score, Mean (SD) / Change from Baseline in CGI Severity of Illness Score, Median: 15 mg
Description: (§3) SECONDARY OBJECTIVES To assess the efficacy of bifeprunox in treating schizophrenia using the Positive Symptom sub-scale score of the PANSS, the Negative Symptom sub-scale score of the PANSS, the General Psychopathology sub-scale of the PANSS, Brief Psychiatric Rating Scale (BPRS) total score derived from the PANSS, BPRS psychosis score derived from the PANSS, the Clinical Global Impression Severity of Illness score (CGI-S), the Clinical Global Impression Improvement score (CGI-I), CGI-I responder rate, PANSS responder rate based on the PANSS total score, Calgary Depression Scale for Schizophrenia (CDSS), and Subject Satisfaction rating.
(§4) There were four treatment arms in this study, approximately 144 subjects per arm. […] After completing the Single-Blind Placebo Lead-in Period of at least three days, bifeprunox-treated subjects were titrated from 0.25 mg up to 20 mg/day or 30 mg/day according to a standardized titration scheme over a seven- or eight-day period, respectively. When the assigned dose was reached, subjects were maintained at that dose for the remainder of the six week treatment period. […] Subjects were hospitalized (if not already inpatients) after eligibility for study entry was verified, starting from the Screening Visit until at least 10 days after Baseline. Subjects could be hospitalized longer than 10 days if considered medically necessary by the Investigator. Rating scale assessments for efficacy and abnormal movement disorders were done weekly except for Week 5. […] Subject satisfaction with study medication was assessed at Week 6.

[2] = Clinical laboratory assessments (prolactin), Clinical Study Three; conditions: olanzapine 15 mg; 6 weeks
Description: To assess the safety and tolerability of bifeprunox using physical examination, weight, waist circumference, vital signs (pulse rate and systolic/diastolic blood pressure [BP], and oral temperature), 12-lead electrocardiogram (ECG), clinical laboratory assessments (hematology, biochemistry including fasting insulin level, fasting glucose, fasting lipid profile, urinalysis, special laboratory assessments for prolactin, IGF-1, IGFBP-3, and thyroid function), need for anticholinergic treatment during double-blind treatment period, concomitant medication use, adverse event (AE) monitoring, and assessments of abnormal movement including the Simpson-Angus Scale (SAS), Barnes Akathisia Scale (BAS), and Abnormal Involuntary Movement Scale (AIMS).

[3] = test system: adult subjects with schizophrenia; test: BPRS total score, Clinical Study Three; format: in vivo, human; conditions: LOCF; for Change from Baseline in BPRS Total Score, Mean (SD) / Change from Baseline in BPRS Total Score, Median: Olanzapine 15 mg, ITT population
Description: as §3, §4

[4] = test system: adult subjects with schizophrenia; test: PANSS positive symptom subscale score, Clinical Study Two; format: in vivo, human; conditions: Risperidone 6 mg, LOCF, ITT
Procedure: (§1) Rating scale assessments were performed weekly, except for week 5, to measure the change from baseline to endpoint of the PANSS total score. Other assessments included: PANSS positive symptom subscale score, PANSS negative symptom subscale score, PANSS general pschopathology subscale score, BPRS total score, BPRS psychosis score, the CGI-S score, the CGI-I score, responder rates based on the PANSS total score, and the Calgary Depression Scale for Schizophrenia (CDSS). […]
(§2) Subjects who completed this study had the option to continue in the long-term. […] Risperidone-treated subjects were titrated from 2 mg to 6 mg daily over a three-day period and were subsequently maintained at 6 mg/day for the remainder of the treatment period. […] Blood samples were also obtained at Screening/Baseline, Week 3, and Week 6 for clinical laboratory assessments.

[5] = test system: adult subjects with schizophrenia; test: CGI Improvement score, Clinical Study Two; format: in vivo, human; conditions: 6 mg, LOCF
Procedure: as §1, §2

[6] = test system: adult subjects with schizophrenia; test: CGI responder rate, Clinical Study Two; format: in vivo, human; conditions: LOCF
Procedure: Notable differences were also observed between the 30 mg bifeprunox group and placebo for the change from baseline to endpoint in PANSS general psychopathology subscale score, BPRS total score, BPRS psychosis cluster score, PANSS responder rate, and CGI-I responder rate. In the study, a PANSS responder refers to a subject whose PANSS total score decreased by 20% or more from baseline to endpoint. A CGI-I responder refers to a subject who was categorized as “very much improved” or “much improved” in the CGI Global Improvement scale at endpoint.
Pharmacokinetic (PK) data of bifeprunox in schizophrenic subjects were also assessed and are presented in a separate report (combined with data from study S1543003).
as §2
CLINICAL STUDY TWO: A CGI responder is defined as a subject who is categorized as “very much improved” or “much improved” on the CGI Improvement scale. […] A notable difference between the 30 mg bifeprunox group and placebo was seen (p=0.039).

## Cc1cc2c(s1)Nc1ccccc1N=C2N1CCN(C)CC1 [Olanzapine, olanzapine, reference compound]
[1]; Week 1
  Change from Baseline in CGI Severity of Illness Score, Mean (SD): −0.40 (0.65)
  Change from Baseline in CGI Severity of Illness Score, Median: 0.0
[1]; Week 2
  Change from Baseline in CGI Severity of Illness Score, Mean (SD): −0.71 (0.76)
  Change from Baseline in CGI Severity of Illness Score, Median: −1.0
[1]; Week 3
  Change from Baseline in CGI Severity of Illness Score, Mean (SD): −0.85 (0.87)
  Change from Baseline in CGI Severity of Illness Score, Median: −1.0
[1]; Week 4
  Change from Baseline in CGI Severity of Illness Score, Mean (SD): −0.92 (0.90)
  Change from Baseline in CGI Severity of Illness Score, Median: −1.0
[1]; Week 6/Endpoint
  Change from Baseline in CGI Severity of Illness Score, Mean (SD): −1.03 (1.00)
  Change from Baseline in CGI Severity of Illness Score, Median: −1.0
[1]; olanzapine 15 mg, ITT
  mean change (SD) from Baseline to Endpoint in CGI severity of illness score: −1.03 (1.00)
[2]
  prolactin: increases in prolactin
[3]; Week 1
  Change from Baseline in BPRS Total Score, Mean (SD): −5.6 (6.7)
  Change from Baseline in BPRS Total Score, Median: −4
[3]; Week 2
  Change from Baseline in BPRS Total Score, Mean (SD): −8.9 (8.2)
  Change from Baseline in BPRS Total Score, Median: −8
[3]; Week 3
  Change from Baseline in BPRS Total Score, Mean (SD): −11.4 (9.3)
  Change from Baseline in BPRS Total Score, Median: −11
[3]; Week 4
  Change from Baseline in BPRS Total Score, Mean (SD): −12.0 (9.8)
  Change from Baseline in BPRS Total Score, Median: −11
[3]; Week 6/Endpoint
  Change from Baseline in BPRS Total Score, Mean (SD): −13.2 (10.7)
  Change from Baseline in BPRS Total Score, Median: −12
[3]; olanzapine 15 mg, ITT
  mean change (SD) from Baseline to Endpoint in BPRS total score: −13.2 (10.7)

## Cc1nc2n(c(=O)c1CCN1CCC(c3noc4cc(F)ccc34)CC1)CCCC2 [Risperidone, risperidone, reference compound]
[4]; Week 1
  Change from Baseline in PANSS Positive Symptom Subscale Score, Mean (SD): −3.3 (3.6)
  Change from Baseline in PANSS Positive Symptom Subscale Score, Median: −3
[4]; Week 2
  Change from Baseline in PANSS Positive Symptom Subscale Score, Mean (SD): −5.3 (4.7)
  Change from Baseline in PANSS Positive Symptom Subscale Score, Median: −5
[4]; Week 3
  Change from Baseline in PANSS Positive Symptom Subscale Score, Mean (SD): −6.3 (5.3)
  Change from Baseline in PANSS Positive Symptom Subscale Score, Median: −6
[4]; Week 4
  Change from Baseline in PANSS Positive Symptom Subscale Score, Mean (SD): −7.0 (5.6)
  Change from Baseline in PANSS Positive Symptom Subscale Score, Median: −7
[4]; Week 6/Endpoint
  Change from Baseline in PANSS Positive Symptom Subscale Score, Mean (SD): −7.2 (6.6)
  Change from Baseline in PANSS Positive Symptom Subscale Score, Median: −7
[5]; Week 2
  CGI Improvement Minimally Improved, %: (40%)
  CGI Improvement Minimally Worse, %: (5%)
  CGI Improvement Much Improved, %: (30%)
  CGI Improvement Much Worse, %: (3%)
  CGI Improvement No Change, %: (16%)
  CGI Improvement Very Much Improved, %: (5%)
[5]; Week 3
  CGI Improvement Minimally Improved, %: (33%)
  CGI Improvement Minimally Worse, %: (5%)
  CGI Improvement Much Improved, %: (36%)
  CGI Improvement Much Worse, %: (5%)
  CGI Improvement No Change, %: (13%)
  CGI Improvement Very Much Improved, %: (9%)
[5]; Week 4
  CGI Improvement Minimally Improved, %: (25%)
  CGI Improvement Minimally Worse, %: (5%)
  CGI Improvement Much Improved, %: (38%)
  CGI Improvement Much Worse, %: (5%)
  CGI Improvement No Change, %: (14%)
  CGI Improvement Very Much Improved, %: (13%)
[5]; Week 6/Endpoint
  CGI Improvement Minimally Improved, %: (23%)
  CGI Improvement Minimally Worse, %: (5%)
  CGI Improvement Much Improved, %: (36%)
  CGI Improvement Much Worse, %: (5%)
  CGI Improvement No Change, %: (15%)
  CGI Improvement Very Much Improved, %: (16%)
  CGI Improvement Very Much Worse, %: (<1%)
[6]; 6 mg
  CGI Responder at Endpoint No, %: 48%
  CGI Responder at Endpoint Yes, %: 52%
[6]; risperidone 6 mg
  CGI-I responder rate (subjects much or very much improved) at Endpoint: 52%
